For orientation: IC50 means the point on the concentration scale where inhibition reaches its midpoint. In general, EC50 refers to the midpoint of the concentration-response curve.

The source of these data is US11945834B2, “Cyclic dinucleotides as anticancer agents” (BRISTOL-MYERS SQUIBB COMPANY, priority 2018, dated 2024).

The target in experiment [1] is T1, STING AQ: His-TVMV-S-hSTING(155-341)-G230A-R293Q (Homo sapiens, UniProt Q86WV6, G230A/H232R/R293Q).
T1 construct: STING AQ: His-TVMV-S-hSTING(155-341)-G230A-R293Q
T1 sequence (Q86WV6 with tags, fused parts or gaps G230A/H232R/R293Q): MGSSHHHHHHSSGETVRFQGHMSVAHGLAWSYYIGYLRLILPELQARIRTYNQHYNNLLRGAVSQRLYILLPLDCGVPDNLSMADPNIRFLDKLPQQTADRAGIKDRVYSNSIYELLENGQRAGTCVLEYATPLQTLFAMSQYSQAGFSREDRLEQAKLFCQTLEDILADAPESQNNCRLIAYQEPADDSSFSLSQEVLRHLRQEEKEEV
Put plainly: STING HTRF binding assay, STING AQ. To be noted: 20 nM His-tagged STING cytoplasmic domain AQ, 40 nM fluorescein-labeled cGAMP analog probe, one hour; read-out: HTRF Binding Assays IC50 (μM) AQ. As for the experimental part: (§1) A time resolved FRET-based competition binding assay was used to assess test article binding to STING WT and STING AQ. His-tagged STING cytoplasmic domain (WT or AQ) at a concentration of 20 nM was incubated with 2.5 nM Tb-labeled anti-His antibody, test compound, and fluorescein-labeled cGAMP analog probe (BioLog cat. no. C195) at a concentration of 200 nM (STING WT) or 40 nM (STING AQ) in PBS containing 0.005% Tween-20 and 0.1% BSA for one hour. Fluorescence at 495 nm and 520 nm was measured using an EnVision microplate reader to quantify FRET between Tb-labeled anti-His antibody and fluorescein-labeled probe. Background was defined as the signal obtained in the absence of STING protein, and background subtracted FRET ratios were normalized to the maximum signal obtained in the absence of test compound. These values were converted to a percent inhibition. Percent inhibition was determined for test compounds at 11 concentrations. The IC50, defined as the concentration of competing test compound needed to reduce specific binding of the probe by 50%, was calculated using the 4 parameter logistic equation to fit the data
A general note: TR-FRET usually uses a lanthanide donor and a delayed reading to cut background.

Experiment [2] relates to NF-κB pathway in THP1-Dual cells (STING agonists). Briefly: STING THP1 reporter assay, NF-κB pathway (SEAP). Particulars: 10% human plasma, SEAP readout, 100% = 100 μM cGAMP, read-out: THP1 Reporter Assays EC50 (μM) NFkB. It is filed as cell-based. The source says: (§2) THP1-Dual™ cells were derived from the human THP-1 monocyte cell line by stable integration of two inducible reporter constructs. To this end, THP1-Dual™ cells allow the simultaneous study of the NF-κB pathway, by monitoring the activity of SEAP, and the IRF pathway by assessing the activity of a secreted luciferase (Lucia). Both reporter proteins are readily measurable in the cell culture supernatant when using QUANTI-Blue™, a SEAP detection reagent, and QUANTI-Luc™, a luciferase detection reagent.
(§3) THP1-Dual™ cells induce the activation of NF-κB in response to STING agonists. They also trigger the IRF pathway upon stimulation with STING agonists, such as cGAMP. Here, the THP-1-Dual cells were used to assess STING binders for function on the cellular level.
(§4) Serial dilutions of compounds in DMSO were added to low volume 384 well plates at 100 nl/well using an ECHO acoustic dispenser (Labcyte, model 550) to achieve final starting concentration of 100 μM in cell suspension. THP-1 Dual™ STING reporter cells (Invivogen, Dual cells cat #THPD-nfis) were added to the plates with compounds at 15,000 cells in 10 μL per well in RPMI media (Gibco, cat #11875) containing 10% human plasma in a low volume 384-well black wall clear bottom tissue culture plate (Corning, cat #3542) for SEAP assay and low volume solid white plate (Corning, cat #3826) for luciferase assay. One column of the plate was reserved for treatment with cGAMP at 100 μM for 100% activation calculation and one column for no treatment (DMSO only) for baseline activation. Plates were then incubated in 37° C. incubator at 5% CO2 for 20 hours.
(§5) In the SEAP assay, 5 μl of 2× QuantiBlue (Invivogen, cat #Rep-qb2) is added to 384 well black plates seeded with THP1 cells and incubated at 37° C. for 2 hours. Plates were read on the Envision (Perkin Elmer) at 620 nm wavelength (OD620). In the luciferase assay, 5 μl of Quantiluc (Invivogen, Rep-qlc2) is added to white 384 well plates seeded with THP1 cells and read at 5 minutes on the Envision (Perkin Elmer) using a luminescence protocol (RLU). For both cell lines, 100% activation was determined by value (RLU) of THP-1 Dual STING cells stimulated with 100 μM cGAMP (Invivogen, cat #TLRL-NACGA23-5).
For orientation: In a reporter assay the amount or activity of a reporter protein is the signal.

The test system of experiment [3] is IRF pathway in THP1-Dual cells (STING agonists). Put plainly: STING THP1 reporter assay, IRF pathway (Lucia luciferase). It is filed as cell-based. To be noted: 10% human plasma, luciferase readout, 100% = 100 μM cGAMP, read-out: THP1 Reporter Assays EC50 (μM) IRF3.
Source text: as §2, §3, §4, §5

The target in experiment [4] is T2, STING WT: His-TVMV-S-hSTING(155-341)-H232R (Homo sapiens, UniProt Q86WV6, H232R).
T2 construct: STING WT: His-TVMV-S-hSTING(155-341)-H232R
T2 sequence (Q86WV6 with tags, fused parts or gaps H232R): as the sequence (Q86WV6 with tags, fused parts or gaps G230A/H232R/R293Q) above, with A99G, Q162R counted along it
Briefly: STING HTRF binding assay, STING WT. Particulars: 20 nM His-tagged STING cytoplasmic domain WT, 200 nM fluorescein-labeled cGAMP analog probe, one hour; read-out: HTRF Binding Assays IC50 (μM) WT. The procedure: as §1

Like-named read-outs stand apart in the source and are kept apart here. A value given as a limit tells only on which side of the number the result lay.

Take `NC(=O)c1cc([C@@H]2O[C@@H]3COP(=O)(S)O[C@H]4[C@@H](F)[C@H](n5cnc6c(N)ncnc65)O[C@@H]4COP(=O)(S)O[C@@H]2[C@@H]3F)ccn1` (single isomer, unassigned) [Example 4-1]: the results for the IC50 in experiment [1] and in experiment [4] were 0.05 µM and 0.66 µM, respectively. In addition, the EC50 was determined as 57.1 µM in experiment [2] (20 hours) and 19 µM in experiment [3] (20 hours).

As to `C=C1[C@H]2OP(=O)(S)OC[C@H]3O[C@@H](n4cnc5c(N)ncnc54)[C@H](F)[C@@H]3OP(=O)(S)OC[C@H]1O[C@H]2c1ccnc(C(N)=O)c1` (single isomer, unassigned) [Example 3-1], the IC50 is 0.04 µM in experiment [1] and 0.78 µM in experiment [4]. The figures for the EC50 in experiment [2] (20 hours) and in experiment [3] (20 hours) were 22.6 µM and 9.23 µM, respectively.

As to `CNC(=O)c1cc([C@@H]2O[C@@H]3COP(=O)(S)O[C@H]4[C@@H](F)[C@H](n5cnc6c(N)ncnc65)O[C@@H]4COP(=O)(S)O[C@@H]2[C@@H]3O)ccn1` (single isomer, unassigned) [Example 2-1], the concentration for half-maximal inhibition (IC50) came out at 0.6 µM in experiment [1] and 10.3 µM in experiment [4]. Besides, the EC50 in experiment [2] (Homo sapiens, THP1-Dual, 20 h) was more than 100 µM; in experiment [3] (Homo sapiens, THP1-Dual, 20 h) it was more than 100 µM.

On to `C=C1[C@H]2OP(=O)(S)OC[C@H]3O[C@@H](n4cnc5c(N)ncnc54)[C@H](F)[C@@H]3OP(=O)(S)OC[C@H]1O[C@H]2c1ccnc(C(N)=O)c1` (single isomer, unassigned) [Example 3-4], for which the figures for the IC50 in experiment [1] and in experiment [4] were 0.09 µM and 1.21 µM, respectively. Also, the 50% effective concentration (EC50) in experiment [2] (20 hours) turned out to be 19.3 µM; in experiment [3] (20 hours) it was 7.4 µM.

`CNC(=O)c1cc([C@@H]2O[C@@H]3COP(=O)(S)O[C@H]4[C@@H](F)[C@H](n5cnc6c(N)ncnc65)O[C@@H]4COP(=O)(S)O[C@@H]2[C@@H]3O)ccn1` (single isomer, unassigned) [Example 2-4]: the figures for the IC50 in experiment [1] and in experiment [4] were 4.85 µM and 92.3 µM, respectively. Moreover, the concentration for a half-maximal effect (EC50) in experiment [3] (20 hours) was more than 100 µM.

Turning to `NC(=O)c1cc([C@@H]2O[C@@H]3COP(=O)(S)O[C@H]4[C@@H](F)[C@H](n5cnc6c(N)ncnc65)O[C@@H]4COP(=O)(S)O[C@@H]2[C@@H]3F)ccn1` (single isomer, unassigned) [Example 4-2], the IC50 in experiment [1] worked out at 0.03 µM; in experiment [4] it was 0.09 µM. Besides, the 50% effective concentration (EC50) in experiment [2] (20 hours) turned out to be 1.32 µM; in experiment [3] (20 hours) it was 0.37 µM.

As to `NC(=O)c1cc([C@@H]2O[C@@H]3COP(=O)(S)O[C@H]4[C@@H](F)[C@H](n5cnc6c(N)ncnc65)O[C@@H]4COP(=O)(S)O[C@@H]2[C@@H]3O)ccn1` (single isomer, unassigned) [Example 1-1], the IC50 in experiment [1] was found to be 0.01 µM; in experiment [4], 0.09 µM. Moreover, the EC50 in experiment [2] (Homo sapiens, THP1-Dual, 20 h) came out at 8.05 µM; in experiment [3] (Homo sapiens, THP1-Dual, 20 h), 4.94 µM.

For the molecule `NC(=O)c1cc([C@@H]2O[C@@H]3COP(=O)(S)O[C@H]4[C@@H](F)[C@H](n5cnc6c5ncn5ccnc65)O[C@@H]4COP(=O)(S)O[C@@H]2[C@@H]3O)ccn1` (single isomer, unassigned) [Example 5-2], the IC50 in experiment [1] amounted to 14 µM; in experiment [4], 93.4 µM. Moreover, the EC50 in experiment [2] (Homo sapiens, THP1-Dual, 20 h) worked out at 0.38 µM; in experiment [3] (Homo sapiens, THP1-Dual, 20 h) it was 0.14 µM.

In the case of `C=C1[C@H]2OP(=O)(S)OC[C@H]3O[C@@H](n4cnc5c(N)ncnc54)[C@H](F)[C@@H]3OP(=O)(S)OC[C@H]1O[C@H]2c1ccnc(C(N)=O)c1` (single isomer, unassigned) [Example 3-2], the IC50 in experiment [1] is 1.64 µM; in experiment [4], 40.9 µM. Moreover, the EC50 in experiment [2] (20 hours) and in experiment [3] (20 hours) was more than 100 µM in each case.

In the case of `C=C1[C@H]2OP(=O)(S)OC[C@H]3O[C@@H](n4cnc5c(N)ncnc54)[C@H](F)[C@@H]3OP(=O)(S)OC[C@H]1O[C@H]2c1ccnc(C(N)=O)c1` (single isomer, unassigned) [Example 3-3], the IC50 in experiment [1] was 1.03 µM; in experiment [4] it was 14.4 µM. For the same molecule, the concentration for a half-maximal effect (EC50) in experiment [2] (20 hours) and in experiment [3] (20 hours) was more than 100 µM in each case.
